Test results taken from patent US20240156097A1, “AGROCHEMICAL ADJUVANTS FROM STACHYBOTRYS CHARTARUM” (Croda International Plc, priority 2021, published 2024).

How the values were obtained:
[1] = test system: Botrytis cinerea (ATCC 90479); test: Adjuvancy: growth inhibition of Botrytis cinerea on agar with fungicide and/or adjuvant (colony diameter); format: cell-based; conditions: for Fold Change in Growth Inhibition: 48 h, 22° C.; for inherent fungicidal activity on their own: adjuvant alone, any of the concentrations tested; for fungicidal activity compared to dimethomorph, prothioconazole, mancozeb, metalaxyl and pyrimethanil alone: in words, adjuvant plus fungicide
[2] = test system: African green monkey Vero kidney cells (ATCC CCL-81); test: Cytotoxicity against Vero cells (alamarBlue); format: cell-based; conditions: highest concentration tested (128 μg/mL); 24 hours
Procedure: The cytotoxicity of the phenylspirodrimanes and stachybocin A was assessed in vitro against African green monkey Vero kidney cells (ATCC CCL-81). Cells were cultured in 15 mL of Eagle's minimal essential medium (Sigma) supplemented with 10% (v/v) fetal bovine serum (VWR), […] and 0.1 mg/mL streptomycin in T75 cm^2 cell culture flasks. Cells were incubated for 24 hours at 37° C. in a humidified atmosphere of 5% CO2. Culture medium was refreshed every 2-3 days and cells were not allowed to exceed 80% confluency.
At 80% confluency the cells were counted, diluted and plated into 96 well flat bottom cell culture plates (Corning) at a cell density of 10,000 cells per well in 90 μL of growth medium. The plates were incubated at 37° C. in a humidified atmosphere of 5% CO2 for 24 hours to allow cells to adhere to the plate before treatment. […]
The plates were incubated at 37° C. in a humidified atmosphere of 5% C02 for 24 hours after which alamarBlue (Invitrogen) was added to each well at 10% of the culture volume. Fluorescence was monitored using a Thermo Scientific Varioskan Flash plate reader at 560/12 excitation, 590 nm emission both at time zero and 4 hrs after alamarBlue addition. After subtracting the time zero emission 590 nm measurement from the final reading, the inferred percentage of cell viability relative to the vehicle control wells was calculated.

[3] = adjuvant 12.5 μg/mL + pyraclostrobin 0.1 μg/mL vs pyraclostrobin alone
[4] = adjuvant 12.5 μg/mL + pyraclostrobin 0.2 μg/mL vs pyraclostrobin alone
[5] = adjuvant 12.5 μg/mL + pyraclostrobin 0.4 μg/mL vs pyraclostrobin alone
[6] = adjuvant 12.5 μg/mL + pyraclostrobin 0.8 μg/mL vs pyraclostrobin alone
[7] = adjuvant 12.5 μg/mL + tebuconazole 0.05 μg/mL vs tebuconazole alone
[8] = adjuvant 12.5 μg/mL + tebuconazole 0.10 μg/mL vs tebuconazole alone
[9] = adjuvant 12.5 μg/mL + tebuconazole 0.19 μg/mL vs tebuconazole alone
[10] = adjuvant 12.5 μg/mL + tebuconazole 0.38 μg/mL vs tebuconazole alone
[11] = adjuvant 25 μg/mL + pyraclostrobin 0.1 μg/mL vs pyraclostrobin alone
[12] = adjuvant 25 μg/mL + pyraclostrobin 0.2 μg/mL vs pyraclostrobin alone
[13] = adjuvant 25 μg/mL + pyraclostrobin 0.4 μg/mL vs pyraclostrobin alone
[14] = adjuvant 25 μg/mL + pyraclostrobin 0.8 μg/mL vs pyraclostrobin alone
[15] = adjuvant 25 μg/mL + tebuconazole 0.05 μg/mL vs tebuconazole alone
[16] = adjuvant 25 μg/mL + tebuconazole 0.10 μg/mL vs tebuconazole alone
[17] = adjuvant 25 μg/mL + tebuconazole 0.19 μg/mL vs tebuconazole alone
[18] = adjuvant 25 μg/mL + tebuconazole 0.38 μg/mL vs tebuconazole alone
[19] = adjuvant 50 μg/mL + pyraclostrobin 0.1 μg/mL vs pyraclostrobin alone
[20] = adjuvant 50 μg/mL + pyraclostrobin 0.2 μg/mL vs pyraclostrobin alone
[21] = adjuvant 50 μg/mL + pyraclostrobin 0.4 μg/mL vs pyraclostrobin alone
[22] = adjuvant 50 μg/mL + pyraclostrobin 0.8 μg/mL vs pyraclostrobin alone
[23] = adjuvant 50 μg/mL + tebuconazole 0.05 μg/mL vs tebuconazole alone
[24] = adjuvant 50 μg/mL + tebuconazole 0.10 μg/mL vs tebuconazole alone
[25] = adjuvant 50 μg/mL + tebuconazole 0.19 μg/mL vs tebuconazole alone
[26] = adjuvant 50 μg/mL + tebuconazole 0.38 μg/mL vs tebuconazole alone

## CC1CCC2C(C)(C)C(O)CCC2(C)C12Cc1c(O)cc3c(c1O2)CN(CCCCC(C(=O)O)N1Cc2c(cc(O)c4c2OC2(C4)C(C)CCC4C(C)(C)C(O)CCC42C)C1=O)C3=O (stereo not drawn) [Sta A (IIa), stachybocin A]
[1]; [3]
  Fold Change in Growth Inhibition: 2.92
[1]; [4]
  Fold Change in Growth Inhibition: 1.00
[1]; [5]
  Fold Change in Growth Inhibition: 1.00
[1]; [6]
  Fold Change in Growth Inhibition: 1.00
[1]; [7]
  Fold Change in Growth Inhibition: 12.70
[1]; [8]
  Fold Change in Growth Inhibition: 2.83
[1]; [9]
  Fold Change in Growth Inhibition: 2.36
[1]; [10]
  Fold Change in Growth Inhibition: 1.00
[1]; [11]
  Fold Change in Growth Inhibition: 2.92
[1]; [12]
  Fold Change in Growth Inhibition: 1.00
[1]; [13]
  Fold Change in Growth Inhibition: 1.00
[1]; [14]
  Fold Change in Growth Inhibition: 1.00
[1]; [15]
  Fold Change in Growth Inhibition: 14.29
[1]; [16]
  Fold Change in Growth Inhibition: 2.67
[1]; [17]
  Fold Change in Growth Inhibition: 1.81
[1]; [18]
  Fold Change in Growth Inhibition: 1.00
[1]; [19]
  Fold Change in Growth Inhibition: 2.25
[1]; [20]
  Fold Change in Growth Inhibition: 1.00
[1]; [21]
  Fold Change in Growth Inhibition: 1.47
[1]; [22]
  Fold Change in Growth Inhibition: 1.08
[1]; [23]
  Fold Change in Growth Inhibition: 12.70
[1]; [24]
  Fold Change in Growth Inhibition: 2.17
[1]; [25]
  Fold Change in Growth Inhibition: 1.36
[1]; [26]
  Fold Change in Growth Inhibition: 1.00
[1]
  inherent fungicidal activity on their own: did not demonstrate any inherent fungicidal activity
  fungicidal activity compared to dimethomorph, prothioconazole, mancozeb, metalaxyl and pyrimethanil alone: showed increased fungicidal activity
[2]
  cytotoxicity against Vero cells: did not exhibit any cytotoxicity

## CC1CCC2C(C)(C)C(O)CCC2(C)C12Cc1c(O)cc3c(c1O2)CN(C(Cc1ccccc1)C(=O)O)C3=O (stereo not drawn) [Phe (Ib), phenylspirodrimane (Ib)]
[1]; [3]
  Fold Change in Growth Inhibition: 3.59
[1]; [4]
  Fold Change in Growth Inhibition: 1.11
[1]; [5]
  Fold Change in Growth Inhibition: 1.47
[1]; [6]
  Fold Change in Growth Inhibition: 1.55
[1]; [7]
  Fold Change in Growth Inhibition: 22.22
[1]; [8]
  Fold Change in Growth Inhibition: 2.83
[1]; [9]
  Fold Change in Growth Inhibition: 2.17
[1]; [10]
  Fold Change in Growth Inhibition: 1.03
[1]; [11]
  Fold Change in Growth Inhibition: 4.25
[1]; [12]
  Fold Change in Growth Inhibition: 1.56
[1]; [13]
  Fold Change in Growth Inhibition: 1.08
[1]; [14]
  Fold Change in Growth Inhibition: 1.19
[1]; [15]
  Fold Change in Growth Inhibition: 7.94
[1]; [16]
  Fold Change in Growth Inhibition: 1.67
[1]; [17]
  Fold Change in Growth Inhibition: 1.83
[1]; [18]
  Fold Change in Growth Inhibition: 1.00
[1]; [19]
  Fold Change in Growth Inhibition: 17.87
[1]; [20]
  Fold Change in Growth Inhibition: 1.67
[1]; [21]
  Fold Change in Growth Inhibition: 1.62
[1]; [22]
  Fold Change in Growth Inhibition: 1.57
[1]; [23]
  Fold Change in Growth Inhibition: 14.29
[1]; [24]
  Fold Change in Growth Inhibition: 4.33
[1]; [25]
  Fold Change in Growth Inhibition: 2.36
[1]; [26]
  Fold Change in Growth Inhibition: 1.00
[1]
  inherent fungicidal activity on their own: did not demonstrate any inherent fungicidal activity
  fungicidal activity compared to dimethomorph, prothioconazole, mancozeb, metalaxyl and pyrimethanil alone: showed increased fungicidal activity
[2]
  cytotoxicity against Vero cells: did not exhibit any cytotoxicity
